Here are results for four molecules from publication PMC2630844, “Characterizing the Anti-HIV Activity of Papuamide A” (Marine Drugs, 2008).

Experiment [1] deals with HIV-1NL4-3 (X4 tropic virus) entry into HeLa T4+ cells. Nature of the experiment: Virion based fusion assay (BlaM-Vpr), X4 tropic virus. In kind it is cell-based. The conditions noted are these: n≥4.
The subject of experiment [2] is DHIV-3 pseudotype virus expressing X4 tropic envelope (IIINL4), CEM-SS cells. In kind it is cell-based, HIV. The following applies: duplicate determinations.
Experiment [3] relates to pseudotype virus expressing vesicular stomatitis virus (VSV) envelope glycoprotein, CEM-SS cells. In kind it is cell-based, HIV pseudotyped with vesicular stomatitis virus envelope. The conditions noted are these: n≥3.
The test system of experiment [4] is HIV-1NL(AD8) (R5 tropic virus) entry into TZM-bl cells. The experiment is described as follows: Virion based fusion assay (BlaM-Vpr), R5 tropic virus.
Description: Briefly, production of virus was accomplished by co-transfection of 20 μg of pMM310 (plasmid encoding β-lactamase linked to Vpr, BlaM-Vpr) [56],10 μg pAdVAntage (Invitrogen, Carlsbad, CA); and 60 μg pNL4-3(X4 tropic proviral DNA) [50] or pNL(AD8) (R5 tropic proviral DNA) [51] into 293FT cells using standard calcium phosphate transfection. Virus was collected after 48 hours and titered using the RETROtek p24 ELISA kit (ZeptoMatrix, Buffalo, NY). HeLaT4 or TZM-bl cells, 200μL at a concentration of 1 X 10^5 cells/mL, were plated into 96 well, black walled, flat bottom plates and placed in a 37°C, 5% CO2 humidified incubator overnight for attachment. Medium was aspirated and 200 μL of medium containing virus, at a predetermined p24 concentration of 200 ng/mL, was added with test compounds or vehicle. Cells were incubated at 37°C, 5% CO2 for 2 hours. Virus was aspirated off and cells rinsed twice with room temperature CO2 independent medium (Invitrogen, Carlsbad, CA). Cells were then loaded with CCF2-AM fluorescent substrate (Invitrogen, Carlsbad, CA) according to manufacturer’s protocol. Cells were incubated, protected from light, for 1 hour at room temperature and washed twice with room temperature CO2 independent medium. Next, 200 μL of room temperature CO2 independent medium supplemented with 10% FBS and 2.5mM probenecid (Sigma-Aldrich, St. Louis, MO) was added and the reaction was allowed to develop for 5–7 hours.
When fusion occurs, β-lactamase (BlaM) present in the virus cleaves the CCF2-AM substrate. This cleavage results in a change of the fluorescence emission from green to blue. Images of the cells were taken with a fluorescent microscope equipped with the appropriate filter set, Excitation filter 405±10 nm, Dicroic mirror 425, Emission Filter (blue) 460±20 nm, and Emission Filter (green) 530±15 nm. Using ImageJ, an image software program provided by NIH, the amount of green and blue fluorescence was determined. To quantify the observed fusion, a fluorescence ratio was calculated by dividing the amount of blue fluorescence by the amount of green fluorescence. This value was then normalized to the non-infected control by dividing the calculated values by the average control value.
For experiment [5], the system named is pseudotype virus infection. In kind it is cell-based, HIV. The following applies: 174nM papuamide A; flow cytometry of GFP; data not shown. On the technique in general: A flow cytometer gives signals particle by particle.
The subject of experiment [6] is DHIV-3 pseudotype virus expressing IIINL4 envelope, CEM-SS cells. It is filed as cell-based, HIV. The conditions noted are these: papuamide A 178 nM with annexin V 0.1 μM; n=3.
The subject of experiment [7] is viral infection of cells preincubated overnight. The experiment is described as follows: Overnight preincubation of cells with papuamide A. It is filed as cell-based, HIV. The conditions noted are these: data not shown.
The test system of experiment [8] is VSV-G pseudotype virus, CEM-SS cells. In kind it is cell-based, HIV pseudotyped with vesicular stomatitis virus envelope. The conditions noted are these: n≥3.
Experiment [9] can be described thus: Surface plasmon resonance, papuamide A - positive control peptide. It is filed as binding. As for the experimental part:
(§1) The expected response at saturation is determined by the following formula: LCR/MWL×MWA , (LCR=Ligand capture response, amount of papuamide A captured onto the biosensor chip; MWL=molecular weight of ligand, papuamide A; and MWA=molecular weight of analyte, the protein or peptide.)[23–26] The observed response, determined by the BIAcore instrument detector in response units (RU), can be lower than the expected response if the concentration of analyte used is below the dissociation constant (KD) concentration value, KD values were calculated by the software from the binding responses obtained with multiple concentrations of analyte. When this is the case, the fold difference in concentration values (KD/concentration of analyte used) is approximately proportionate to the fold difference in responses (expected response/observe response). Therefore, to correct for the expected response at the maximum concentration tested, the expected response at saturation was divided by the fold difference in concentration values to determine the expected response at the maximum value tested.
Binding interactions were quantified by surface plasmon resonance (SPR). Studies were performed at the University of Utah Protein Interactions facility on a BIAcore 3000 instrument. […] Data analyzed using the SCRUBBER software, developed by the University of Utah Protein Interactions Facility.
A general note: In SPR one partner is held on a chip, and binding of the other changes the refractive index at the surface.

In experiment [10] the test system is pseudotype virus expressing LAI (X4 tropic) envelope, CEM-SS cells. In kind it is cell-based, HIV. The conditions noted are these: 178 nM (Fig. 4; text 174nM); flow cytometry of GFP, 48 h; n≥3.
In the next experiment the target is gp120 (Human immunodeficiency virus type 1 group M subtype B, UniProt P03375). Nature of the experiment: Surface plasmon resonance, papuamide A - gp120. In kind it is binding, HIV. As for the experimental part:
as §1
(§2) Binding interactions were quantified by surface plasmon resonance (SPR). Studies were performed at the University of Utah Protein Interactions facility on a BIAcore 3000 instrument. Briefly, papuamide A was biotinylated using the EZ-Link Sulfo-NHS-LC-LC-Biotin reagent (Pierce Biotechnology, Rockford, IL) with reaction products purified by reverse phase high performance liquid chromatography (HPLC). Biotinylation was confirmed by mass spec and presumed to target the free amine of the 2,3-diaminobutenoic acid. Biotinylated papuamide A was captured onto a chip with a carboxymethylated dextran matrix preimmobilized with streptavidin. Analytes were then flowed over the chip in hepes buffered saline (HBS) running buffer containing 1 mg/mL bovine serum albumin to reduce nonspecific binding. […] Data analyzed using the SCRUBBER software, developed by the University of Utah Protein Interactions Facility.

In experiment [11] the test system is pseudotype virus expressing JRFL (R5 tropic) envelope, CEM.NKR-CCR5 cells. In kind it is cell-based, HIV. The following applies: 178 nM (Fig. 4; text 174nM); flow cytometry of GFP, 48 h; n≥3.
Experiment [12] concerns NL4-3 BlaM-Vpr virus entry, HeLa T4 cells. The experiment is described as follows: Papuamide A preincubation in virion fusion assay. In kind it is cell-based, HIV-1. The following applies: 178 nM (Fig. 6a) or 710 nM (method), n≥3. As for the experimental part:
HeLa T4 cells were infected with NL4-3 BlaM virus and treated with 710 nM papuamide A, following these three protocols: Virus pretreated with papuamide A for 30 minutes at room temperature prior to dilution and addition to the cells; Cells pretreated with papuamide A for 2 hours followed by aspiration of papuamide A containing medium and addition of virus; Virus and papuamide A added to the cells at the same time.

A further experiment addresses T1, sCD4 (Homo sapiens, UniProt P01730).
T1 construct: Soluble CD4 (sCD4)
The experiment is described as follows: Surface plasmon resonance, papuamide A - sCD4. It is filed as binding. As for the experimental part: as §1, §2

Experiment [13] has as its system 20% phosphatidylserine / 80% phosphatidylcholine vesicles. Nature of the experiment: Surface plasmon resonance, PS:PC vesicle binding. The following applies: 20% PS, 80% PC vesicles; data not shown. As for the experimental part: (§3) Papuamide A’s ability to bind to phosphatidylserine was observed using surface plasmon resonance. Twenty percent phosphatidylserine and 80% phosphatidylcholine (PC) vesicles were tested alongside 100% PC vesicles. […] This indicates there is a preferential binding of papuamide A to phosphatidylserine. To determine if binding of PS alone was sufficient to inhibit viral entry, annexin V (AV) was tested in the virion based fusion assay.

The subject of experiment [14] is 100% phosphatidylcholine (PC) vesicles. The experiment is described as follows: Surface plasmon resonance, PC vesicle binding. The conditions noted are these: 100% PC vesicles; data not shown. As for the experimental part:
as §3

The subject of experiment [15] is pseudotype virus expressing amphotropic murine leukemia virus (aMLV) envelope glycoprotein, CEM-SS cells. In kind it is cell-based. The following applies: 178 nM (Fig. 4; text 174nM); flow cytometry of GFP, 48 h; n≥3.
Experiment [16] deals with liposomes composed solely of phosphatidylcholine. The following applies: cited from earlier work. The source says:
(§4) Papuamide B only differs from papuamide A by one methyl group. […] PS is a phospholipid normally present on the inner leaflet of the cell membrane, but during apoptosis the regulation of PS is altered and PS is present on the outer leaflet.

In experiment [17] the test system is phosphatidylserine (PS) containing liposomes. The conditions noted are these: cited from earlier work.
Description: as §4

The next experiment deals with HIV T cell infection. The conditions noted are these: binding of PS by Annexin V; cited from earlier work.
Description: as §4

The test system of experiment [18] is HIV infection of monocyte and macrophage. The conditions noted are these: binding of PS by Annexin V; cited from earlier work.
Description: as §4

*1 amine or outer side, *2 acyl side, *3 side chain or, on linkers, in order; H or OH if unused. Where a SMILES comes first, the peptide text is derived from it. Bridges are numbered along the chain shown (N, C = ends). Side-chain parts run from the residue outwards. [ ]: non-standard residue; d: D form. The star is where a group is joined. Gln(3S,4R-Me2) = C[C@H]([C@H](N)C(=O)O)[C@@H](C)C(N)=O; dTyr(βR-OMe) = CO[C@H](c1ccc(O)cc1)[C@@H](N)C(=O)O; Biotin = O=C1N[C@H]2[C@H](CS[C@H]2CCCCC(=O)*)N1; X3 = CC(C)[C@@H](O[*:3])[C@H](N[*:1])C(=O)[*:2]; X1 = CCC(C)/C=C(C)/C=C\C(O)C(C)(O)C(=O)*; X2 = CC(N[*:3])[C@H](N[*:1])C(=O)[*:2]; NMeT = CN[C@H](C(=O)O)[C@@H](C)O; Pip = O=C(O)[C@@H]1CCCCN1; Ahx = NCCCCCC(=O)O

In the case of `Cc1cn([C@H]2C[C@H](N=[N+]=[N-])[C@@H](CO)O2)c(=O)[nH]c1=O` [AZT, azidothymidine], the “inhibition of viral entry” value in experiment [1] (AZT at 18 μM, fluorescence ratio) is listed as “did not prevent viral entry”. The “effect of delayed addition, 1 hour” value in [2] (C34 233 nM or AZT 3.7 μM added 1 hour after virus) was “no difference in activity”. Also, the “effect of delayed addition, 2 hours” value in [2] (C34 233 nM or AZT 3.7 μM added 2 hours after virus) is on record as “only a minor loss of activity”.

In the case of `CCC(C)/C=C(C)/C=C\C(O)C(C)(O)C(=O)NCC(=O)N[C@H](C(=O)N[C@H](C(=O)N[C@H](C(=O)N[C@@H]1C(=O)N[C@H](COC)C(=O)NCC(=O)N[C@@H](C)C(=O)N(C)[C@@H]([C@@H](C)O)C(=O)N[C@H]([C@H](OC)c2ccc(O)cc2)C(=O)N2CCCC[C@H]2C(=O)O[C@@H]1C(C)C)[C@@H](C)[C@@H](C)C(N)=O)C(C)NC(=O)CCCCCNC(=O)CCCCCNC(=O)CCCC[C@@H]1SC[C@@H]2NC(=O)N[C@@H]21)[C@@H](C)O` (stereo partly drawn) [papuamide A] (X1-GT[X2]([Ahx-Ahx-Biotin])[Gln(3S,4R-Me2)][X3][dS](Me)GA[NMeT][dTyr(βR-OMe)][Pip]; ester 5-C), the “inhibition of infection” value is “effectively inhibited infection” in experiment [3]; “approximately 50%” in experiment [5]; “inhibits infection” in experiment [10]; “inhibits infection” in experiment [11]; “effectively inhibited infection” in experiment [15]. In addition, in [4] (710-43.4 nM, n≥3), the “inhibition of R5 tropic virus entry” value is “effectively inhibited the entry of the R5 tropic virus in a dose dependant manner”. Also, the “inhibition of X4 and R5 virus entry, papuamide A alongside annexin V” value in [4] (Fig. 7a, R5 (NL(AD8)), n≥4) is “remained active”; in experiment [1] (Fig. 7a, X4 (NL4-3)) it was “remained active”. Further, in [6], the “effect of papuamide A in presence of annexin V” value is “unchanged in the presence of AV”. In addition, the “inhibition of infection after overnight cell preincubation” value in experiment [7] was “failed to inhibit viral infection”. The “inhibition of viral entry” value in experiment [1] (710 nM papuamide A, 2 h infection, blue/green fluorescence ratio) is on record as “approximately 80%”. Besides, the “decreased infectivity, pretreated versus simultaneous addition” value in experiment [8] (178 nM) was “the same as that observed when papuamide A was added to cells at the same time as VSV-G pseudotype virus”. For the same molecule, the “decreased infectivity after virus pretreatment” value in experiment [8] is recorded as approximately 50%. Also, the “SPR interaction with positive control peptide” value in experiment [9] is recorded as “shown to interact with a positive control binding peptide”. In experiment [9] (calculated by software from binding responses at multiple peptide concentrations, max 5 μM, biotinylated papuamide A captured on chip), the dissociation constant (Kd) is 176 µM. Further, the “observed response lower than calculated expected response” value at gp120 (at maximum gp120 concentration tested) is given as 54 times lower; on sCD4 (at maximum sCD4 concentration tested) it was 600 times lower. The “Fold Difference of Responses” value at gp120 (expected response at saturation / observed response, gp120) was 1284; at sCD4 (expected response at saturation / observed response, sCD4), 974. For the same molecule, the “SPR binding response significance” value on gp120 (gp120) and on sCD4 (sCD4) was “determined not to be significant” throughout. In addition, the “inhibition of viral entry after cell pretreatment” value in experiment [12] (cells incubated with papuamide A 2 hours, removed, two washes, then infected) is recorded as “did not result in inhibition of viral entry”. Moreover, the “inhibition after virus pretreatment” value in experiment [12] (virus pretreated 30 minutes then diluted) is listed as “rate of inhibition similar to when papuamide A was added at the same time as virus”. In addition, the figures for the “SPR vesicle binding” value in [13] and in experiment [14] were “exhibited binding to papuamide A” and “did not”, respectively.

As to papuamide B, in [4] (710 nM, NL(AD8), n≥4), the “inhibition of viral entry” value was “approximately 80%”. Moreover, the “binding to and leakage of liposomes” value in experiment [16] is “not those composed solely of phosphatidylcholine”; in experiment [17] it was “bind to and cause leakage of phosphatidylserine (PS) containing liposomes”.

B1: annexin V: a specific binder of PS (protein, UniProt P08758 2-320, looked up)
Annexin A5: AQVLRGTVTDFPGFDERADAETLRKAMKGLGTDEESILTLLTSRSNAQRQEISAAFKTLFGRDLLDDLKSELTGKFEKLIVALMKPSRLYDAYELKHALKGAGTNEKVLTEIIASRTPEELRAIKQVYEEEYGSSLEDDVVGDTSGYYQRMLVVLLQANRDPDAGIDEAQVEQDAQALFQAGELKWGTDEEKFITIFGTRSVSHLRKVFDKYMTISGFQIEETIDRETSGNLEQLLLAVVKSIRSIPAYLAETLYYAMKGAGTDDHTLIRVMVSRSEIDLFNIRKEFRKNFATSLYSMIKGDTSGDYKKALLLLCGEDD
B1: in experiment [4] (annexin V at concentrations similar to and higher than that shown to inhibit HIV infection, NL(AD8), n≥4), the “inhibition of R5 virus entry” value is on record as “did not have any inhibitory effect”. Besides, the “inhibition of X4 virus entry” value in experiment [1] (annexin V at concentrations similar to and higher than that shown to inhibit HIV infection, NL4-3) was “did not have any inhibitory effect”. Besides, the “inhibition of infection” value was “not T cell infection” in the experiment on HIV T cell infection; “able to inhibit monocyte and macrophage infection” in experiment [18].

A word on the Kd: it is the constant that tells how readily two partners part at equilibrium.
